Values joined by “and” are separate entries in the source; they are usually repeats but may differ in a detail not shown here. Equal values may be shown once.
Columns and labels:
rabbit eye = test: Pupillary diameter measurement, rabbit paracentesis model; format: in vivo; conditions: individual eyes; for Pupillary diameter T2: −5 min: 5 min before the first paracentesis; for Pupillary diameter T3: +115 min: 5 min before the second paracentesis; for Pupillary diameter Δ(T3 − T1): +115 min minus −180 min; for Pupillary diameter T1: −180 min: basal
Method: Each rabbit was placed in a restraint device and tagged with the alphanumeric code. The formulations were instilled (50 μl) into the conjunctival sac of both eyes 180, 120, 90 and 30 min before the first paracentesis; then 15, 30, 90 min after the first paracentesis. To perform the first paracentesis the animals were anaesthetized by intravenous injection of 5 mg/kg Zoletil® (Virbac; 2.5 mg/kg tiletamine HCl and 2.5 mg/kg zolazepam HCl) and one drop of local anesthetic (Novesina®, Novartis) was administered to the eye. Anterior chamber paracentesis was performed with a 26 G needle attached to a tuberculin syringe; the needle was introduced into the anterior chamber through the cornea, taking care not to damage the tissues. Two hours after the ® first paracentesis, the animals were sacrificed with 0.4 ml Tanax® (Intervet International B.V.) and the second paracentesis was performed. About 100 μl of aqueous humor were removed at the second paracentesis. Aqueous humor was immediately split in four aliquots and stored at −80° C. until analysis. Then both eyes were enucleated and the iris-ciliary body was carefully excised, placed in polypropylene tubes, and stored at −80° C. until analysis.
The pupillary diameter of both eyes was measured with a Castroviejo caliper 180 min and 5 min before the first paracentesis and 5 min before the second paracentesis.
Pupillary diameter, PGE2, protein, PMN, and MPO were expressed as mean±SEM. Statistical analysis was performed using one way ANOVA followed by a Newman-Keuls post hoc test. Clinical score was expressed as % of eyes and the statistical analysis was performed using Kruskal-Wallis followed by a Dunn post hoc test. P<0.05 was considered statistically significant in both cases. Prism 4 software (GraphPad Software, Inc.) was used for the analysis and graphs.

rabbit eyes = test: Ophthalmic observations (slit lamp, McDonald Shadduck) in the rabbit IOP study; format: in vivo, New Zealand White rabbits; set-up: key to Cornea Score: 1: Some loss of transparency. Only the epithelium and/or the anterior half of the stoma are involved. The underlying structures are clearly visible although some cloudiness may be readily apparent; key to Conjunctival congestion Score: A flushed, reddish color predominantly confined to the palpebral conjunctiva with some perilimbal injection but primarily confined to the lower and upper parts of the eye from the 4:00 to 7:00 and 11:00 to 1:00 positions; conditions: for Conjunctival congestion Score: individual rabbit; for Ophthalmic Observation (Slit-Lamp): individual rabbits; for Ocular finding associated with unilateral topical instillation: four times daily up to 31 days, BOL-303242-X 0.05, 0.25 or 0.5 mg/dose, dexamethasone 0.05 mg/dose
Method: On Days 1-31, animals received daily topical doses of the appropriate test article into the right eye. Animals were dosed four times per day, with doses administered 2 hours apart. Doses were administered using a calibrated 50-μL pipette. The eyelids were held close for 10 seconds immediately following dosing. The time of each dose administration was recorded.
Ophthalmic examinations (slit lamp) were performed prior to the first dosing on Days 5, 12, 22, 26, and 33. Ocular findings were scored according to the McDonald Shadduck system and recorded using a standardized data collection sheet.

monkey TM cells = test: Cell metabolic activity (resazurin reduction) assay in monkey TM cells; format: cell-based, rhesus monkeys (Macaca mulatta); conditions: at the conclusion of the treatment periods
Method: A modification of previously described methods^40 was employed to evaluate cell metabolic activity, an index of cell viability. After collection of CM samples, cells were briefly rinsed in modified Hanks balanced salt solution containing Ca^++ and Mg^++ (“MHBSS”), and then 0.0025% (w/v) resazurin (Sigma) in MHBSS was added to sample wells. Plates were incubated (37° C., 5% CO2, 95% humidity) for 90 minutes, after which fluorescence (Excitation 560 nm, Emission 590 nm) was read (Victor 3V Multilabel Counter, Wallac, Turku, Finland). As a positive control for decreased cellular metabolic reduction of resazurin, in each plate an additional well of vehicle control-treated cells was preincubated with 0.06% hydrogen peroxide (Fisher, Atlanta, Ga.) in MHBSS.

[1] = 0.1% topical formulation, listed as BOL
[2] = 0.5% topical formulation, listed as BOL
[3] = 1% topical formulation, listed as BOL
[4] = 1 mg/g BOL-303242-X 4 x daily, treated right eye, Day 22
[5] = 5 mg/g BOL-303242-X 4 x daily, treated right eye, Day 5
[6] = 5 mg/g BOL-303242-X 4 x daily, treated right eye, Day 22
[7] = 5 mg/g BOL-303242-X 4 x daily, treated right eye, Day 22, 26
[8] = 5 mg/g BOL-303242-X 4 x daily, treated right eye, Day 26
[9] = 10 mg/g BOL-303242-X 4 x daily, treated right eye, Day 5, 12
[10] = 10 mg/g BOL-303242-X 4 x daily, treated right eye, Day 12
[11] = 10 mg/g BOL-303242-X 4 x daily, treated right eye, Day 26
[12] = 0.1% topical formulation, listed as Dex
[13] = 0.1% Dexamethasone 4 x daily, treated right eye, Day 5
[14] = 0.1% Dexamethasone 4 x daily, treated right eye, Day 22

Compound: Cc1ccc2c(NCC(O)(CC(C)(C)c3cc(F)cc4c3OCC4)C(F)(F)F)cccc2n1 (stereo not drawn) [BOL-303242-X]
- Pupillary diameter T2: −5 min (rabbit eye; [1]): 6.5 mm (3×) and 7.0 mm (4×) and 7.5 mm
- Pupillary diameter T3: +115 min (rabbit eye; [1]): 5.0 mm (2×) and 6.0 mm (3×) and 6.5 mm and 5.5 mm (2×)
- Pupillary diameter Δ(T3 − T1) (rabbit eye; [1]): −1.5 mm (4×) and −0.5 mm (2×) and −1.0 mm (2×)
- Pupillary diameter T1: −180 min (rabbit eye; [1]): 6.5 mm (4×) and 7.0 mm (3×) and 7.5 mm
- Pupillary diameter T2: −5 min (rabbit eye; [2]): 8.0 mm (3×) and 7.0 mm (4×) and 7.5 mm
- Pupillary diameter T3: +115 min (rabbit eye; [2]): 6.5 mm (4×) and 6.0 mm (2×) and 7.0 mm (2×)
- Pupillary diameter Δ(T3 − T1) (rabbit eye; [2]): −1.5 mm (2×) and −0.5 mm (2×) and −1.0 mm (4×)
- Pupillary diameter T1: −180 min (rabbit eye; [2]): 8.0 mm (3×) and 7.0 mm (3×) and 7.5 mm (2×)
- Pupillary diameter T2: −5 min (rabbit eye; [3]): 6.0 mm (2×) and 6.5 mm (4×) and 7.0 mm (2×)
- Pupillary diameter T3: +115 min (rabbit eye; [3]): 5.5 mm (2×) and 5.0 mm (4×) and 6.0 mm (2×)
- Pupillary diameter Δ(T3 − T1) (rabbit eye; [3]): −0.5 mm (3×) and −1.5 mm (2×) and −1.0 mm (3×)
- Pupillary diameter T1: −180 min (rabbit eye; [3]): 6.0 mm (3×) and 6.5 mm (5×)
- Conjunctival congestion Score (rabbit eyes; [4]): 1
- Ophthalmic Observation (Slit-Lamp) (rabbit eyes; [4]): Conjunctival congestion
- Slit-lamp ophthalmic finding (rabbit eyes; 1 mg/g suspension, dosed right eye (Group D, No. 3043)): subconjunctival hemorrhage
- Conjunctival congestion Score (rabbit eyes; [5]): 1
- Conjunctival congestion Score (rabbit eyes; [6]): 1
- Conjunctival congestion Score (rabbit eyes; [7]): 1
- Conjunctival congestion Score (rabbit eyes; [8]): 1
- Ophthalmic Observation (Slit-Lamp) (rabbit eyes; [5]): Conjunctival congestion
- Ophthalmic Observation (Slit-Lamp) (rabbit eyes; [6]): Conjunctival congestion
- Ophthalmic Observation (Slit-Lamp) (rabbit eyes; [7]): Conjunctival congestion
- Ophthalmic Observation (Slit-Lamp) (rabbit eyes; [8]): Conjunctival congestion
- Conjunctival congestion Score (rabbit eyes; [9]): 1
- Conjunctival congestion Score (rabbit eyes; [10]): 1
- Conjunctival congestion Score (rabbit eyes; [11]): 1
- Ophthalmic Observation (Slit-Lamp) (rabbit eyes; 10 mg/g BOL-303242-X 4 x daily, treated right eye, Day 5): Surface area of cornea involvement
- Ophthalmic Observation (Slit-Lamp) (rabbit eyes; [9]): Conjunctival Congestion
- Ophthalmic Observation (Slit-Lamp) (rabbit eyes; [10]): Conjunctival Congestion
- Ophthalmic Observation (Slit-Lamp) (rabbit eyes; [11]): Conjunctival Congestion
- Surface area of cornea involvement Score (rabbit eyes; 10 mg/g BOL-303242-X 4 x daily, treated right eye, rabbit 3083, Day 5): 1 (1-25% area of stromal cloudiness.)
- Cornea Score (rabbit eyes; 10 mg/g BOL-303242-X 4 x daily, treated right eye, rabbit 3083, Day 5, pinpoint corneal scar): 1^(2)
- Slit-lamp ophthalmic finding (rabbit eyes; 10 mg/g suspension, dosed right eye (Group B, No. 3083)): pinpoint corneal scar
- Ocular finding associated with unilateral topical instillation (rabbit eyes): sporadic mild conjunctival congestion
- Cell viability (chemical reduction of resazurin) compared to vehicle controls (monkey TM cells): nor did any drug treatments result in a loss of cell viability

Compound: C[C@@H]1C[C@H]2[C@@H]3CCC4=CC(=O)C=C[C@]4(C)[C@@]3(F)[C@@H](O)C[C@]2(C)[C@@]1(O)C(=O)CO [dexamethasone, reference compound]
- Pupillary diameter T2: −5 min (rabbit eye; [12]): 5.5 mm and 6.5 mm (3×) and 6.0 mm (2×) and 7.0 mm and 7.5 mm
- Pupillary diameter T3: +115 min (rabbit eye; [12]): 5.5 mm (3×) and 6.0 mm (2×) and 4.5 mm and 5.0 mm and 6.5 mm
- Pupillary diameter Δ(T3 − T1) (rabbit eye; [12]): −0.5 mm (3×) and −1.5 mm (2×) and 0.5 mm and 0.0 mm and −2.0 mm
- Pupillary diameter T1: −180 min (rabbit eye; [12]): 6.0 mm and 7.0 mm (2×) and 5.5 mm (2×) and 6.5 mm (3×)
- Conjunctival congestion Score (rabbit eyes; [13]): 1
- Conjunctival congestion Score (rabbit eyes; [14]): 1
- Ophthalmic Observation (Slit-Lamp) (rabbit eyes; [13]): Conjunctival Congestion
- Ophthalmic Observation (Slit-Lamp) (rabbit eyes; [14]): Conjunctival Congestion
- Ocular finding associated with unilateral topical instillation (rabbit eyes): sporadic mild conjunctival congestion
- Cell viability (chemical reduction of resazurin) compared to vehicle controls (monkey TM cells): nor did any drug treatments result in a loss of cell viability

Reference: patent US20120065228A1, “COMPOSITIONS AND METHODS FOR TREATING, CONTROLLING, REDUCING, OR AMELIORATING OCULAR INFLAMMATORY WITH LOWER RISK OF INCREASED INTRAOCULAR PRESSURE” (priority 2007, published 2012)
